{"source": "patent US11098038B2", "about": "“Imidazole-based anticancer agents and derivatives thereof, and methods of making and using same” (The University of Toledo, priority 2017, dated 2021)", "format_in_all_cases": "cell-based", "key": {"SW-620": {"test_system": "SW-620", "assay": "NCI 60 screen, SW-620", "conditions": "Homo sapiens, Colon", "description": "(§1) The compounds synthesized were tested at the National Cancer Institute (NCI) for anti-proliferative activity in the 60 human tumor cell line assay."}, "UACC-62": {"test_system": "UACC-62", "assay": "NCI 60 screen, UACC-62", "conditions": "Homo sapiens, Melanoma", "description": "as §1"}, "HS 578T": {"test_system": "HS 578T", "assay": "NCI 60 screen, HS 578T", "conditions": "Homo sapiens, Breast", "description": "as §1"}, "K-562": {"test_system": "K-562", "assay": "NCI 60 screen, K-562", "conditions": "Homo sapiens, K562, Leukemia", "description": "as §1"}, "NCI-322M": {"test_system": "NCI-322M", "assay": "NCI 60 screen, NCI-322M", "conditions": "Homo sapiens, Non-Small Cell Lung", "description": "as §1"}, "A498": {"test_system": "A498", "assay": "NCI 60 screen, A498", "conditions": "Homo sapiens, Renal", "description": "as §1"}, "NCI-460": {"test_system": "NCI-460", "assay": "NCI 60 screen, NCI-460", "conditions": "Homo sapiens, Non-Small Cell Lung", "description": "as §1"}, "HOP-62": {"test_system": "HOP-62", "assay": "NCI 60 screen, HOP-62", "conditions": "Homo sapiens, Non-Small Cell Lung", "description": "as §1"}, "RXF393": {"test_system": "RXF393", "assay": "NCI 60 screen, RXF393", "conditions": "Homo sapiens, RXF 393, Renal", "description": "as §1"}, "ACHN": {"test_system": "ACHN", "assay": "NCI 60 screen, ACHN", "conditions": "Homo sapiens, Renal", "description": "as §1"}, "IGROV1": {"test_system": "IGROV1", "assay": "NCI 60 screen, IGROV1", "conditions": "Homo sapiens, IGROV-1, Ovarian", "description": "as §1"}, "SF-539": {"test_system": "SF-539", "assay": "NCI 60 screen, SF-539", "conditions": "Homo sapiens, CNS", "description": "as §1"}, "UACC-257": {"test_system": "UACC-257", "assay": "NCI 60 screen, UACC-257", "conditions": "Homo sapiens, Melanoma", "description": "as §1"}, "A549/ATCC": {"test_system": "A549/ATCC", "assay": "NCI 60 screen, A549/ATCC", "conditions": "Homo sapiens, Non-Small Cell Lung", "description": "as §1"}, "SN12C": {"test_system": "SN12C", "assay": "NCI 60 screen, SN12C", "conditions": "Homo sapiens, Renal", "description": "as §1"}, "TK-10": {"test_system": "TK-10", "assay": "NCI 60 screen, TK-10", "conditions": "Homo sapiens, Renal", "description": "as §1"}, "COLO 205": {"test_system": "COLO 205", "assay": "NCI 60 screen, COLO 205", "conditions": "Homo sapiens, Colon", "description": "as §1"}, "BT-549": {"test_system": "BT-549", "assay": "NCI 60 screen, BT-549", "conditions": "Homo sapiens, Breast", "description": "as §1"}, "SNB-19": {"test_system": "SNB-19", "assay": "NCI 60 screen, SNB-19", "conditions": "Homo sapiens, CNS", "description": "as §1"}, "MDA-MB-468": {"test_system": "MDA-MB-468", "assay": "NCI 60 screen, MDA-MB-468", "conditions": "Homo sapiens, Breast", "description": "as §1"}, "HOP-92": {"test_system": "HOP-92", "assay": "NCI 60 screen, HOP-92", "conditions": "Homo sapiens, Non-Small Cell Lung", "description": "as §1"}, "CAKI-1": {"test_system": "CAKI-1", "assay": "NCI 60 screen, CAKI-1", "conditions": "Homo sapiens, Renal", "description": "as §1"}, "OVCAR-3": {"test_system": "OVCAR-3", "assay": "NCI 60 screen, OVCAR-3", "conditions": "Homo sapiens, Ovarian", "description": "as §1"}, "NCI-H522": {"test_system": "NCI-H522", "assay": "NCI 60 screen, NCI-H522", "conditions": "Homo sapiens, Non-Small Cell Lung", "description": "as §1"}, "EKVX": {"test_system": "EKVX", "assay": "NCI 60 screen, EKVX", "conditions": "Homo sapiens, Non-Small Cell Lung", "description": "as §1"}, "T-47D": {"test_system": "T-47D", "assay": "NCI 60 screen, T-47D", "conditions": "Homo sapiens, T47D, Breast", "description": "as §1"}, "HCT15": {"test_system": "HCT15", "assay": "NCI 60 screen, HCT15", "conditions": "Homo sapiens, HCT-15, Colon", "description": "as §1"}, "NCI/ADR-RES": {"test_system": "NCI/ADR-RES", "assay": "NCI 60 screen, NCI/ADR-RES", "conditions": "Homo sapiens, Ovarian", "description": "as §1"}, "SF-295": {"test_system": "SF-295", "assay": "NCI 60 screen, SF-295", "conditions": "Homo sapiens, CNS", "description": "as §1"}, "NCI-H23": {"test_system": "NCI-H23", "assay": "NCI 60 screen, NCI-H23", "conditions": "Homo sapiens, Non-Small Cell Lung", "description": "as §1"}, "NCI-H226": {"test_system": "NCI-H226", "assay": "NCI 60 screen, NCI-H226", "conditions": "Homo sapiens, Non-Small Cell Lung", "description": "as §1"}}}
{"smiles": "Cn1ccnc1C(=O)/C=C/c1ccc(CC(=O)Nc2ccc(F)cc2)cc1", "note": "[Compound 28, (E)-N-(4-fluorophenyl)-2-(4-(3-(1-methyl-1H-imidazol-2-yl)-3-oxoprop-1-en-1-yl)phenyl)acetamide]", "values": [{"measurement": "GI50", "setting": "SW-620", "value": 1.97, "unit": "µM"}, {"measurement": "GI50", "setting": "UACC-62", "value": 3.51, "unit": "µM"}, {"measurement": "GI50", "setting": "HS 578T", "value": 1.5, "unit": "µM"}, {"measurement": "GI50", "setting": "K-562", "value": 0.82, "unit": "µM"}, {"measurement": "GI50", "setting": "NCI-322M", "value": 2.07, "unit": "µM"}, {"measurement": "GI50", "setting": "A498", "value": 5.56, "unit": "µM"}, {"measurement": "GI50", "setting": "NCI-460", "value": 1.8, "unit": "µM"}, {"measurement": "GI50", "setting": "HOP-62", "value": 4.68, "unit": "µM"}, {"measurement": "GI50", "setting": "RXF393", "value": 3.89, "unit": "µM"}, {"measurement": "GI50", "setting": "ACHN", "value": 5.74, "unit": "µM"}, {"measurement": "GI50", "setting": "IGROV1", "value": 2.93, "unit": "µM"}, {"measurement": "GI50", "setting": "SF-539", "value": 3.59, "unit": "µM"}, {"measurement": "GI50", "setting": "UACC-257", "value": 6.99, "unit": "µM"}, {"measurement": "GI50", "setting": "A549/ATCC", "value": 6.43, "unit": "µM"}, {"measurement": "GI50", "setting": "SN12C", "value": 1.62, "unit": "µM"}, {"measurement": "GI50", "setting": "TK-10", "value": 10.5, "unit": "µM"}, {"measurement": "GI50", "setting": "COLO 205", "value": 4.39, "unit": "µM"}, {"measurement": "GI50", "setting": "BT-549", "value": 1.32, "unit": "µM"}, {"measurement": "GI50", "setting": "SNB-19", "value": 2.74, "unit": "µM"}, {"measurement": "GI50", "setting": "MDA-MB-468", "value": 1.72, "unit": "µM"}, {"measurement": "GI50", "setting": "HOP-92", "value": 4.51, "unit": "µM"}, {"measurement": "GI50", "setting": "CAKI-1", "value": 3.14, "unit": "µM"}, {"measurement": "GI50", "setting": "OVCAR-3", "value": 0.96, "unit": "µM"}, {"measurement": "GI50", "setting": "NCI-H522", "value": 3.34, "unit": "µM"}, {"measurement": "GI50", "setting": "EKVX", "value": 5.5, "unit": "µM"}, {"measurement": "GI50", "setting": "T-47D", "value": 8.34, "unit": "µM"}, {"measurement": "GI50", "setting": "HCT15", "value": 1.29, "unit": "µM"}, {"measurement": "GI50", "setting": "NCI/ADR-RES", "value": 4.24, "unit": "µM"}, {"measurement": "GI50", "setting": "SF-295", "value": 4.55, "unit": "µM"}, {"measurement": "GI50", "setting": "NCI-H23", "value": 3.04, "unit": "µM"}, {"measurement": "GI50", "setting": "NCI-H226", "value": 8.57, "unit": "µM"}]}
